Assay results as given in paper PMC8765320, “Identification of a Proteasome-Targeting Arylsulfonamide with Potential for the Treatment of Chagas’ Disease” (Antimicrobial Agents and Chemotherapy, 2022).
Like-named read-outs stand apart in the source and are kept apart here.

Tests used:
T. cruzi epimastigotes = assay: T. cruzi epimastigote drug sensitivity assay (resazurin); format: cell-based, Trypanosoma cruzi; details: for EC50: Trypanosoma cruzi
Description: To examine the effects of test compounds on the growth of T. cruzi epimastigotes, mid-log-phase parasites were seeded into 96-well plates at a cell density of 5 × 10^5 cells ml^−1. Cells were exposed to test compounds over a range of concentrations (2-fold serial dilutions). Cells were incubated for 4 days, and then 20 μl of 2.5 mM resazurin was added to each well, before measuring the fluorescence (excitation, 528 nm; emission, 590 nm), following a further 24 h of incubation. […] In this equation, [I] represents the inhibitor concentration, and m is the slope factor. Experiments were repeated at least two times, and the data are presented as means plus the standard deviations.

[1] = tested on: ubiquitinated proteins in T. cruzi epimastigotes; assay: Accumulation of ubiquitinated proteins in treated epimastigotes (LC-MS/MS); format: cell-based, Trypanosoma cruzi; details: epimastigotes pretreated 8 h at 3× EC50 (methods: 8× EC50); one biological replicate
Description: In cells where the function of the proteasome has been compromised, there is a concomitant build-up of ubiquitinated proteins earmarked for degradation. […] Control cultures were treated for the same period of time in the presence of dimethyl sulfoxide (DMSO). Enrichment of ubiquitinated proteins was achieved by immunoprecipitation using magnetic beads conjugated to an antibody specific for the remnant of ubiquitinated lysines following digestion with trypsin and/or LysC. We used liquid chromatography-tandem mass spectrometry (LC-MS/MS) to calculate the ubiquitination ratio of each sample by dividing the reporter intensity of ubiquitinated proteins by the reporter intensity of total protein (see Table S8). As expected, the accumulation of ubiquitinylated proteins was highest in epimastigotes treated with bortezomib (2.7-fold higher than in the DMSO-treated control), which is known to inhibit all three catalytic activities of the proteasome (Fig. 3). […] Similarly, ubiquitinated proteins accumulated to levels 1.9-fold higher in compound 1-treated parasites compared to those recovered from DMSO-treated control cells.
Controls were incubated in the presence of diluent (DMSO). Cells were harvested by centrifugation (1,912 × g, 15 min, 4°C) and washed with ice-cold PBS (1,912 × g, 5 min, 4°C); finally, the cell pellets were resuspended in 1.5 ml of ice-cold lysis buffer (1 mM EDTA, 1 mM DTT, 100 μM TLCK, and 1× Roche EDTA-free cOmplete protease inhibitor cocktail in 50 mM potassium phosphate buffer [pH 7.4]). Cell suspensions were submitted to three freeze-thaw cycles in a dry ice/ethanol bath to biologically inactivate the parasites and then lysed using a OneShot cell disruptor (Constant Systems) at 30 kpsi.
Cell lysates were centrifuged (100,000 × g, 20 min, 4°C), supernatants were collected, and the protein concentrations were determined by using a standard Bio-Rad protein assay. […]

T. cruzi = details: cited from earlier work
[2] = tested on: T. cruzi amastigotes within Vero cells; assay: Drug sensitivity assay against T. cruzi-infected Vero cells (intracellular amastigotes); format: cell-based, Trypanosoma cruzi; details: Trypanosoma cruzi, Vero
Description: The clonal Leishmania donovani cell line LdBOB (derived from MHOM/SD/62/1S-CL2D) was grown as either promastigotes or axenic amastigotes in media specific for each developmental stage, as previously described ([32]). T. cruzi epimastigotes from the Silvio strain (MHOM/BR/78/Silvio; clone X10/7A [33]) were grown at 28°C in RTH/FBS (RPMI 1640 medium supplemented with Trypticase, hemin, HEPES, and 10% heat-inactivated fetal calf serum (FCS) [Fisher Scientific]) ([34]). Bloodstream form T. brucei “single marker” S427 (T7RPOL TETR NEO) were cultured in the presence of G418 (15 μg ml^−1) at 37°C in HMI9-T media in the presence of 5% CO2. HepG2 cells (ECACC 85011430) were obtained from European Collection of Authenticated Cell Culture (ECACC). Cells were maintained in full growth medium (minimal essential medium [MEM] with GlutaMAX (Thermo Fisher), supplemented with 1% MEM nonessential amino acids (Sigma) and 10% heat-inactivated FBS and cultured at 37°C in the presence of 5% CO2. Cells were passaged twice weekly by detaching adherent cells with 0.05% trypsin/EDTA (Sigma) and diluted into fresh media. Cells were never grown beyond 80% confluence. Vero cells (African green monkey kidney cells; ECCAC 84113001) were maintained at 37°C, 5% CO2 in Dulbecco modified Eagle medium (DMEM; Lonza) supplemented with 10% FCS and subcultured every 2 days. T. cruzi metacyclic trypomastigotes were obtained from late-log-phase epimastigote cultures (initial inoculum, 10^6 ml^−1) after ca. 7 to 10 days at 28°C in RTH/FBS. Trypomastigote-rich cultures were incubated with Vero cells overnight at 37°C and 5% CO2 in DMEM/10% FCS. The following day, extracellular parasites were removed by washing the Vero cell monolayer three times. Infected monolayers were maintained at 37°C and in 5% CO2, DMEM/10% FCS was replaced every 48 h until the trypomastigotes reemerged from the Vero cells ([9]).
Drug sensitivity assays against T. cruzi-infected Vero cells were carried out as previously described ([37]); however, in this instance, assays were carried out in 96-well plates. Data were processed using GRAFIT (Erithacus software) and fitted to a two-parameter equation, as described above.

Chagas' disease = details: cited from earlier work
[3] = read-out: Mean EC50 ± SD, cell line RES II (compound 1-resistant, β5 D225N)
[4] = read-out: Mean EC50 ± SD, cell line RES IV (compound 1-resistant, no proteasome mutation)

SMILES: CC(C)C[C@H](NC(=O)[C@H](Cc1ccccc1)NC(=O)c1cnccn1)B(O)O [Bortezomib, bortezomib]
- EC50 (T. cruzi epimastigotes; [3]): 300 ± 10 nM
- EC50 (T. cruzi epimastigotes; [4]): 600 ± 50 nM
- EC50 (T. cruzi epimastigotes; read-out: Mean EC50 ± SD, cell line Wild type): 200 ± 4 nM
- fold change versus the WT (T. cruzi epimastigotes; cell line RES I): 1 fold
- fold change versus the WT (T. cruzi epimastigotes; cell line RES II): 1 fold
- fold change versus the WT (T. cruzi epimastigotes; cell line RES III): 1 fold
- fold change versus the WT (T. cruzi epimastigotes; cell line RES IV): 2.5 fold
- fold change versus the WT (T. cruzi epimastigotes; cell line RES V): 1 fold
- fold change versus the WT (T. cruzi epimastigotes; cell line Res I-β5 OE): 1 fold
- fold change versus the WT (T. cruzi epimastigotes; cell line β4 F24L/I29M): 1 fold
- fold change versus the WT (T. cruzi epimastigotes; cell line β5 D225N-OE): 1 fold
- cross-resistance against RES I to V clones (T. cruzi epimastigotes; compound 1-resistant clones RES I to V): no evidence of cross-resistance
- accumulation of ubiquitinated proteins versus DMSO-treated control [1]: 2.7 fold

SMILES: Cc1nc(C)c(C(=O)Nc2ccc(F)c(-c3nc4ncc(-c5ccccn5)cn4n3)c2)o1 [GNF6702]
- treated mice with no detectable parasites in blood, colon, or heart tissue (T. cruzi; 10 mg kg−1 twice daily, after 4 weeks of immunosuppression): All but one of the eight
- efficacy in a mouse model of infection (T. cruzi; dosed twice daily at 10 mg kg−1): matched the efficacy of benznidazole
- EC50 ([2]; in Vero cells, cell line RES 1, read-out: EC50 values): 16000 ± 3000 nM
- EC50 ([2]; in Vero cells, cell line RES 5, read-out: EC50 values): 3000 ± 400 nM
- EC50 ([2]; in Vero cells, cell line Wild-type, read-out: EC50 values): 200 ± 30 nM
- EC50 ([2]; in Vero cells, cell line β5 OE, read-out: EC50 values): 200 ± 100 nM
- EC50 ([2]; read-out: EC50 values, in Vero cells, cell line β4 F24L/I29M): > 1500 nM
- EC50 ([2]; read-out: EC50 values, in Vero cells, cell line β5 D225N-OE, (*) one biological replicate): > 5000 nM
- EC50 (T. cruzi epimastigotes; cell line Wild type, read-out: Mean EC50 ± SD): 300 ± 20 nM
- EC50 (T. cruzi epimastigotes; read-out: Mean EC50 ± SD, cell line RES I (compound 1-resistant, β5 D225N)): > 10000 nM
- EC50 (T. cruzi epimastigotes; [3]): > 10000 nM
- EC50 (T. cruzi epimastigotes; read-out: Mean EC50 ± SD, cell line RES III (compound 1-resistant, β5 D225N)): > 10000 nM
- EC50 (T. cruzi epimastigotes; [4]): > 10000 nM
- EC50 (T. cruzi epimastigotes; read-out: Mean EC50 ± SD, cell line RES V (compound 1-resistant, β4 I27T)): 10000 ± 200 nM
- EC50 (T. cruzi epimastigotes; read-out: Mean EC50 ± SD, cell line Res I-β5 OE (β5 WT overexpressed in RES I)): 2000 ± 300 nM
- EC50 (T. cruzi epimastigotes; read-out: Mean EC50 ± SD, cell line β4 F24L/I29M (CRISPR-edited)): > 10000 nM
- EC50 (T. cruzi epimastigotes; read-out: Mean EC50 ± SD, cell line β5 D225N-OE (overexpressing mutated β5)): > 10000 nM
- susceptibility of CRISPR-edited epimastigotes (T. cruzi epimastigotes; β4 F24L and I29M, at all of the concentrations tested): refractory
- accumulation of ubiquitinated proteins versus DMSO-treated control [1]: 1.45 fold

SMILES: O=C(Cn1ccnc1[N+](=O)[O-])NCc1ccccc1 [benznidazole]
- outcome of modified treatment regimen in mouse models of infection (T. cruzi; higher doses given in pulses over prolonged periods): sterile parasitological cure
- interruption or discontinuation of treatment due to severe toxic side effects (Chagas' disease): ≤ 30 % of cases
- individuals cured (Chagas' disease; prolonged treatment during the acute stage): up to 70%

SMILES: CC1CS(=O)(=O)CCN1/N=C/c1ccc([N+](=O)[O-])o1 (stereo not drawn) [nifurtimox]
- individuals cured (Chagas' disease; in vivo): up to 70%
